Laboratory results taken from article PMC6584507 (Scientific Reports, 2019).
Values after ≈ are worked out from the molar mass of the structure shown.

What was measured:
hTSLP/hTSLPR interaction = biological target: T1, hTSLP/hTSLPR interaction (Homo sapiens, UniProt Q969D9); assay: ELISA of hTSLP/hTSLPR interaction (FLAG-hTSLP, hTSLPR-His); assay type: binding; details: for inhibition at 300 µM / inhibition at 1000 µM: read-out: % inhibition (hTSLP-inhibitory activity by ELISA);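 as to all read-outs here: His-tagged hTSLPR captured on Ni-NTA plates, compounds plus FLAG-hTSLP incubated 18 h at 4 °C, bound ligand detected with HRP anti-FLAG, OD 450 nm relative to control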
T1 construct: human TSLP28–159 with thrombin cleavage site at C-terminus; thrombin cleavage site (C); 8xHis (from vector pAB-bee-8xHis) (C, cleaved yes); made in house; host or cells: Trichoplusia ni High-Five cells, baculovirus (secreted)
T1 sequence (Q969D9 28-159): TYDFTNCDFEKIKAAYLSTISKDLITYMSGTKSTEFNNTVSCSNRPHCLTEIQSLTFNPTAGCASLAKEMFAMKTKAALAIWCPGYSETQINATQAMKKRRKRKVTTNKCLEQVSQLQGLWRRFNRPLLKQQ

[1] = Kinetic aqueous solubility; assay type: physicochemical; details: 0.1 M potassium phosphate buffer, kinetic from dmso stock, PBS / phosphate buffer pH 7.4
Method: In brief, 10 mM stock solution of tested compounds was prepared in DMSO. 25 μL of the stock solution was added to a 1-mL uniprep vial containing 475 μL of 0.1 M potassium phosphate buffer (pH 7.4), and was shaken at 800 rpm for 90 min at room temperature. Following shaking, the mixture was filtered by slowly pressing the upper tube of the 1 mL Mini-Uniprep^TM filter (PTFE membrane, 0.45 μm). 250 μL of the filtrate solution was then transferred to a HPLC vial containing equal volume of acetonitrile.

[2] = tested on: pSTAT5 in TSLP-stimulated HMC-1 cells; assay: Western blot analysis of STAT5 phosphorylation; assay type: cell-based, human; details: TSLP 20 ng/mL for 2 h
Method: (§1) HMC-1 cells were obtained from the Department of Food Technology and Inflammatory Disease Research Center (Hoseo University, Asan, Chungnam, Korea). Cells were cultured in Iscove’s modified Dulbecco’s medium (IMDM; Hyclone Laboratories Inc, USA) supplemented with 10% FBS and 1% Penicillin-streptomycin (PS; Gibco Industries Inc, USA) and incubated at 37 °C under humidified atmosphere of 95% air and 5% CO2. Recombinant hTSLP was purchased from R&D Systems (Minneapolis, USA).
[…] Activated cells were lysed and separated by 10% sodium dodecyl sulfate-polyacrylamide gel electrophoresis (SDS-PAGE). After electrophoresis, proteins were transferred to nitrocellulose membranes. The membranes were blocked, incubated with primary antibodies (1:700 dilution in PBS with 0.05% Tween-20), and developed using peroxidase-conjugated secondary antibodies (1:3000 dilution in PBS with 0.05% Tween-20). Proteins were visualized by enhanced chemiluminescence (Amersham Bioseciences, Piscataway, NJ, USA) according to the manufacturer’s instructions.

[3] = tested on: STAT5 phosphorylation in hTSLP-stimulated HMC-1 cells; assay: STAT5 assay (STAT5 phosphorylation, flow cytometry); assay type: cell-based, human
Method: as §1
Intracellular phospho-STAT5 (pSTAT5) staining method was based on the protocol obtained from the laboratory of Susan Kaech, Department of Immunobiology, Yale University School of Medicine (New Haven, Connecticut, USA). Briefly, HMC-1 cells were seeded in 96-well U-bottom plate at a density of 1 × 10^7 cells/mL and stimulated with 100 ng/mL recombinant hTSLP alone or with 1 for 30 min. After stimulation, cells were fixed with BD Cytofix/Cytoperm (BD Biosciences, USA) solution for 10 min. Fixed cells were then permeabilized with ice-cold methanol for 30 min, and intracellular pSTAT5 was stained with Alexa Fluor 647 mouse anti-STAT5 (pY694; BD Biosciences, USA) (1:10 dilution in FACS buffer) for 30 min. Stained cells were further fixed with BD Cytofix/Cytoperm solution for 10 min and re-suspended in FACS buffer for flow cytometry analysis. Cells were analyzed by a BD LSR Fortessa Flow cytometry (BD Biosciences, USA). FACS data were analyzed using FlowJo software Ver 9. 7. 6 (Tree Star Inc., USA).

| SMILES | inhibition at 300 µM (hTSLP/hTSLPR interaction; 0.3 mM) [%] | inhibition at 1000 µM (hTSLP/hTSLPR interaction; 1 mM) [%] | other results |
| --- | --- | --- | --- |
| COc1c(O)ccc(O)c1-c1cc(=O)c2c(O)cc(O)c(OC)c2o1 [Compound 1e, viscidulin III] | 12.8 ± 0.6 | 26.3 | – |
| O=c1cc(-c2ccccc2)oc2cc(O)ccc12 [Compound 3a] | 16.4 ± 2.7 | 23.3 ± 6.8 | – |
| O=c1cc(-c2ccccc2)oc2cc(O)cc(O)c12 [Compound 6a, 5,7-Dihydroxy-2-phenyl-4H-chromen-4-one] | – | – | solubility kinetic at 90 min [1]: 30 µM (≈ 7.63 µg/mL) |
| COc1cccc(O)c1-c1cc(=O)c2c(O)c(OC)c(OC)c(OC)c2o1 [Compound 1d, skullcapflavone II] | < 5 | < 5 | – |
| O=C1CC(c2c(O)cccc2O)Oc2cc(O)cc(O)c21 (centres unmarked) [Compound 1f, 2′,5,6′,7-tetrahydroflavanone] | 14 ± 3.8 | 8.4 ± 5.8 | – |
| O=c1cc(-c2cccc(-c3ccc([N+](=O)[O-])cc3)c2)oc2cc(O)c(O)cc12 [Compound 10h, 6,7-Dihydroxy-2-(4′-nitro-[1,1′-biphenyl]-3-yl)-4H-chromen-4-one] | > 50 | – | – |
| O=C1CC(c2ccc(O)cc2)Oc2cc(O)cc(O)c21 (centres unmarked) [Compound 7b, 5,7-Dihydroxy-2-(4-hydroxyphenyl)chroman-4-one] | – | – | solubility kinetic at 90 min [1]: 505 µM (≈ 137 µg/mL); hTSLP-inhibitory activity by ELISA, comparison in words (hTSLP/hTSLPR interaction): weaker |
| COc1c(O)cc2oc(-c3ccccc3)cc(=O)c2c1O [KUP-119, oroxylin A] | – | – | % inhibition (hTSLP-inhibitory activity by ELISA) (hTSLP/hTSLPR interaction; 0.3 mM): 1.7 ± 9.0%; % inhibition (hTSLP-inhibitory activity by ELISA) (hTSLP/hTSLPR interaction; 1 mM): 11.6 ± 6.3% |
| O=C(O)[C@H]1O[C@@H](Oc2cc3oc(-c4ccccc4)cc(=O)c3c(O)c2O)[C@H](O)[C@@H](O)[C@@H]1O [KUP-040, baicalin] | – | – | STAT5 phosphorylation % ([3]; 3 µM): 69.7%; STAT5 phosphorylation % ([3]; 10 μM): 68.8% |
| O=C1CC(c2ccccc2)Oc2cc(O)cc(O)c21 (centres unmarked) [Compound 7a, 5,7-Dihydroxy-2-phenylchroman-4-one] | – | – | solubility kinetic at 90 min [1]: 111 µM (≈ 28.4 µg/mL); hTSLP-inhibitory activity by ELISA, comparison in words (hTSLP/hTSLPR interaction): weaker |
| O=C1CC(c2cccc(-c3ccc(O)cc3)c2)Oc2cc(O)cc(O)c21 (centres unmarked) [Compound 11a, 5,7-Dihydroxy-2-(4′-hydroxy-[1,1′-biphenyl]-3-yl)chroman-4-one] | – | – | solubility kinetic at 90 min [1]: 66 µM (≈ 23 µg/mL); IC50 (hTSLP/hTSLPR interaction): 370 µM; inhibition of STAT5 phosphorylation, Western blot (in words) ([2]; even at 0.01 μM, HMC-1 cells): strongly inhibited |
| O=c1cc(-c2ccc(O)cc2)oc2cc(O)cc(O)c12 [Compound 6b, 5,7-Dihydroxy-2-(4-hydroxyphenyl)-4H-chromen-4-one] | – | – | solubility kinetic at 90 min [1]: 486 µM (≈ 131 µg/mL) |

Now from value to molecule, other results behind:

| inhibition at 300 µM (hTSLP/hTSLPR interaction; 0.3 mM) [%] | inhibition at 1000 µM (hTSLP/hTSLPR interaction; 1 mM) [%] | SMILES | other results |
| --- | --- | --- | --- |
| < 5 | < 5 | COc1c(O)cc(O)c2c(=O)cc(-c3ccccc3)oc12 [Compound 1b, wogonin] | – |
| – | 11.6 ± 6.3 | COc1c(O)cc2oc(-c3ccccc3)cc(=O)c2c1O [Compound 1c, oroxylin A] | % inhibition (hTSLP-inhibitory activity by ELISA) (hTSLP/hTSLPR interaction; 0.3 mM): <5% |
| 22.2 ± 2.5 | 38.7 ± 5.3 | O=c1cc(-c2ccccc2)oc2ccc(O)cc12 [Compound 3b] | – |
| > 50 | – | O=c1cc(-c2cccc(-c3ccc(O)cc3)c2)oc2cc(O)cc(O)c12 [Compound 10a, 5,7-Dihydroxy-2-(4′-hydroxy-[1,1′-biphenyl]-3-yl)-4H-chromen-4-one] | – |
| > 50 | – | O=c1cc(-c2cccc(-c3ccccc3)c2)oc2cc(O)c(O)cc12 [Compound 10e, 2-([1,1′-Biphenyl]-3-yl)-6,7-dihydroxy-4H-chromen-4-one] | IC50 (hTSLP/hTSLPR interaction): 177 µM; inhibition of STAT5 phosphorylation, Western blot (in words) ([2]; HMC-1 cells pretreated): stronger than compound 1 |
| 24.1 ± 5.4 | 16.8 ± 2 | O=c1cc(-c2ccccc2)oc2cccc(O)c12 [Compound 3c] | – |
| 12.1 ± 1.8 | 19.9 ± 0.2 | O=C(O)[C@H]1O[C@@H](Oc2cc3oc(-c4ccccc4)cc(=O)c3c(O)c2O)[C@H](O)[C@@H](O)[C@@H]1O [Compound 1a, baicalin] | – |
| < 5 | 12 ± 2.8 | COc1cc2oc(-c3ccccc3)cc(=O)c2c(OC)c1OC [Compound 2] | – |
| > 50 | – | O=c1cc(-c2cccc(-c3ccc(O)cc3)c2)oc2cc(O)c(O)cc12 [Compound 10g, 6,7-Dihydroxy-2-(4′-hydroxy-[1,1′-biphenyl]-3-yl)-4H-chromen-4-one] | IC50 (hTSLP/hTSLPR interaction): 210 µM; inhibition of STAT5 phosphorylation, Western blot (in words) ([2]; HMC-1 cells pretreated): stronger than compound 1 |
